Data from US20140329868A1, “METHODS FOR TREATING HYPERTENSION” (TAKEDA PHARMACEUTICALS U.S.A., INC., priority 2005, published 2014).

How the values were obtained:
[1] = system: subjects having a systolic BP≧160 mmHg or diastolic BP≧95 mmHg (elevated blood pressure); test: Example 1: blood pressure change in subjects with elevated blood pressure, none taking antihypertensive agents at baseline (two double-blind studies); type: in vivo, human; settings: 300/100 mg QD
Procedure: A total of 103 subjects (9 in the placebo group, 26 in each the 2-[3-cyano-4-(2-methylpropoxy)phenyl]-4-methylthiazole-5-carboxylic acid (hereinafter referred to as “febuxostat”) 80 mg and 120 mg once daily (hereinafter referred to as “QD”) groups, 10 in the febuxostat 240 mg QD group and 32 in the 4-hydroxy-3,4-pyrazolopyrimidine (hereinafter referred to as “allopurinol”) 300/100 mg QD group), having a systolic BP≧160 mmHg or diastolic BP≧95 mmHg, and thus considered to have “elevated blood pressure”, were examined. Allopurinol […] xanthine oxidoreductase inhibitor.
None of the above subjects were taking any antihypertensive agents at the baseline (start) of the study. These […] subjects were part of two (2) double-blind (hereinafter referred to as “DB”) studies. One study was of 28 weeks in duration. During this time, the subjects received 80 mg, 120 mg or 240 mg QD of febuxostat, placebo or allopurinol 300 or 100 mg QD, depending on the subject's renal function. The second study was 52 weeks in duration. During this time, the subjects received 80 mg or 120 mg QD of febuxostat or allopurinol 300 mg QD.

[2] = target: orotidine-5-monophosphate decarboxylase (Homo sapiens, UniProt P11172); settings: at a therapeutically effective amount in a subject; stated as known; cited from earlier work
orotidine-5-monophosphate decarboxylase, sequence (P11172 whole entry): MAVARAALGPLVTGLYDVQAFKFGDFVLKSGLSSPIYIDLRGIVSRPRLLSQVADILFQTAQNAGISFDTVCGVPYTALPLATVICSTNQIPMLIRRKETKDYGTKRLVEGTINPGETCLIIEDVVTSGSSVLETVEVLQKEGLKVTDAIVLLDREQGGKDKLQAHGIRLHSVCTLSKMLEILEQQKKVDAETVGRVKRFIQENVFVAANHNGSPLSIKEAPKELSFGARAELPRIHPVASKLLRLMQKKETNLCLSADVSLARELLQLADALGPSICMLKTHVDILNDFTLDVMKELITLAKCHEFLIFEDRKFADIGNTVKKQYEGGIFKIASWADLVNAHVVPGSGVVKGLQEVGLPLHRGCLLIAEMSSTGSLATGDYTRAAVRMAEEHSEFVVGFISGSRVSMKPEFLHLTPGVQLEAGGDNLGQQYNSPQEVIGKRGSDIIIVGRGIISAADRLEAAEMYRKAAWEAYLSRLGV

[3] = system: subjects having a systolic BP≧160 mmHg or diastolic BP≧95 mmHg (elevated blood pressure); test: Example 3: blood pressure change in subjects with elevated blood pressure, none taking angiotensin antagonists (two double-blind studies); type: in vivo, human; settings: 300/100 mg QD
Procedure: None of these subjects were taking any angiotensin antagonists, but might have been taking some other type of antihypertensive drug at the baseline (start) of the study. These 187 subjects were part of two (2) DB studies. One study was of 28 weeks in duration during which subjects received 80 mg, 120 mg or 240 mg QD of febuxostat or placebo or allopurinol 300 or 100 mg QD, depending on the subject's renal function. The second study was of 52 weeks in duration during which subjects received 80 mg or 120 mg QD of febuxostat or allopurinol 300 mg QD. Of these 187 subjects, all completed 4 weeks of treatment and 132 completed 28 weeks of treatment. A total of 52 weeks of treatment was completed by 15 subjects in the febuxostat 80 mg QD group, 11 in the febuxostat 120 mg QD group and 22 in the allopurinol 300/100 mg QD group. Because of the shorter duration of one of the 2 DB studies, no subject in the placebo and febuxostat 240 mg QD groups were treated for 52 weeks.

[4] = system: subjects having a systolic BP≧160 mmHg or diastolic BP≧95 mmHg (elevated blood pressure); test: Example 2: blood pressure change in subjects with elevated blood pressure, none taking angiotensin-converting enzyme inhibitors (two double-blind studies); type: in vivo, human; settings: 300/100 mg QD
Procedure: None of these subjects were taking any angiotensin-coverting enzyme inhibitors, but might have been taking some other type of antihypertensive drug at the baseline (start) of the study. These 158 subjects were part of two (2) DB studies. One study was of 28 weeks in duration during which subjects received 80 mg, 120 mg or 240 mg QD of febuxostat or placebo or allopurinol 300 or 100 mg QD, depending on the subject's renal function. The second study was 52 weeks in duration during which subjects received 80 mg or 120 mg QD of febuxostat or allopurinol 300 mg QD. […] A total of 52 weeks of treatment was completed by 15 subjects in the febuxostat 80 mg QD group, 9 in the febuxostat 120 mg QD group and 17 in the allopurinol 300/100 mg QD group. Because of the shorter duration of one of the two DB studies, no subject in the placebo and febuxostat 240 mg QD groups was treated for 52 weeks.

[5] = target: T1, purine nucleotide phosphorylase (Homo sapiens, UniProt P00491); settings: at a therapeutically effective amount in a subject; stated as known; cited from earlier work
T1 sequence (P00491 1-289): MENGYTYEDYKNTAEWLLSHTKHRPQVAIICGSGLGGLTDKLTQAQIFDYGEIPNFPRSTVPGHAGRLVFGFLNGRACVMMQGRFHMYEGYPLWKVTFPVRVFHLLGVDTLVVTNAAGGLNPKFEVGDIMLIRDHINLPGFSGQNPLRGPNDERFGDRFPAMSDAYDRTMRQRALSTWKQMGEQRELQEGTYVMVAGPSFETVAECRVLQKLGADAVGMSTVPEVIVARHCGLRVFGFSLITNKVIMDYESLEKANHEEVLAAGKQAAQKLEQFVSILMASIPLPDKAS

SMILES: Oc1ncnc2[nH]ncc12 [allopurinol, 4-hydroxy-3,4-pyrazolopyrimidine]
- mean change from baseline for diastolic BP ([1]; after 4 weeks of treatment): −6.3 mmHg
- mean change from baseline for mean arterial BP ([1]; after 4 weeks of treatment): −6.8 mmHg
- mean change from baseline for systolic BP ([1]; after 4 weeks of treatment): −7.7 mmHg
- mean change from baseline for diastolic BP ([1]; after 28 weeks of treatment): −8.2 mmHg
- mean change from baseline for mean arterial BP ([1]; after 28 weeks of treatment): −7.8 mmHg
- mean change from baseline for systolic BP ([1]; after 28 weeks of treatment): −7.0 mmHg
- mean change from baseline for diastolic BP ([1]; after 52 weeks of treatment): −10.9 mmHg
- mean change from baseline for mean arterial BP ([1]; after 52 weeks of treatment): −10.4 mmHg
- mean change from baseline for systolic BP ([1]; after 52 weeks of treatment): −9.4 mmHg
- effect on the activity of orotidine-5-monophosphate decarboxylase [2]: has an effect
- mean change from baseline for diastolic BP ([3]; after 4 weeks of treatment): −5.7 mmHg
- mean change from baseline for mean arterial BP ([3]; after 4 weeks of treatment): −6.1 mmHg
- mean change from baseline for systolic BP ([3]; after 4 weeks of treatment): −7.0 mmHg
- mean change from baseline for diastolic BP ([3]; after 28 weeks of treatment): −8.7 mmHg
- mean change from baseline for mean arterial BP ([3]; after 28 weeks of treatment): −8.8 mmHg
- mean change from baseline for systolic BP ([3]; after 28 weeks of treatment): −9.0 mmHg
- mean change from baseline for diastolic BP ([3]; after 52 weeks of treatment): −11.6 mmHg
- mean change from baseline for mean arterial BP ([3]; after 52 weeks of treatment): −11.1 mmHg
- mean change from baseline for systolic BP ([3]; after 52 weeks of treatment): −10.0 mmHg
- mean change from baseline for diastolic BP ([4]; after 4 weeks of treatment): −6.7 mmHg
- mean change from baseline for mean arterial BP ([4]; after 4 weeks of treatment): −6.7 mmHg
- mean change from baseline for systolic BP ([4]; after 4 weeks of treatment): −6.6 mmHg
- mean change from baseline for diastolic BP ([4]; after 28 weeks of treatment): −10.1 mmHg
- mean change from baseline for mean arterial BP ([4]; after 28 weeks of treatment): −9.8 mmHg
- mean change from baseline for systolic BP ([4]; after 28 weeks of treatment): −9.1 mmHg
- mean change from baseline for diastolic BP ([4]; after 52 weeks of treatment): −11.4 mmHg
- mean change from baseline for mean arterial BP ([4]; after 52 weeks of treatment): −10.8 mmHg
- mean change from baseline for systolic BP ([4]; after 52 weeks of treatment): −9.5 mmHg
- effect on the activity of purine nucleotide phosphorylase [5]: has an effect
